Measurements as given in ChEMBL document CHEMBL5241093, “Recent advances in the design and discovery of synthetic tyrosinase inhibitors” (Eur J Med Chem, 2021).
pIC50, pKi: −log10 of the molar value.

Legend:
[1] = target: T1, Tyrosinase (Agaricus bisporus, UniProt O42713); experiment: Inhibition of mushroom tyrosinase using L-tyrosine as substrate preincubated for 15 mins followed by substrate addition measured after 30 mins by plate reader analysis
T1 sequence (O42713 whole entry): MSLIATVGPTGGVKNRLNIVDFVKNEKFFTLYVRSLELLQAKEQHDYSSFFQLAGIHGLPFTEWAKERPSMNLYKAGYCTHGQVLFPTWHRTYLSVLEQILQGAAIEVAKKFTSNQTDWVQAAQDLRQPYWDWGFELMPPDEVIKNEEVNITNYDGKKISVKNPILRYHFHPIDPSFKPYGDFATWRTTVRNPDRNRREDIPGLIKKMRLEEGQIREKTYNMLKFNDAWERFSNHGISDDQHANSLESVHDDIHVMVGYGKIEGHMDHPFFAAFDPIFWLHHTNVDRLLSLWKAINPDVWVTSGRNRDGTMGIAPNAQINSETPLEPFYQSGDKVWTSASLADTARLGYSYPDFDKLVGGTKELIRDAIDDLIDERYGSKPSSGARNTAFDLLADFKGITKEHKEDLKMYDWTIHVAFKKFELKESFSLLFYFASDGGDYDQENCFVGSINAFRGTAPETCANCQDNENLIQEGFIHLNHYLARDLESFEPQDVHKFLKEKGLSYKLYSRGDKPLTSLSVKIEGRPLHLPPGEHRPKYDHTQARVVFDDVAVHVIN

[2] = target: T1, Tyrosinase; experiment: Inhibition of mushroom tyrosinase using L-DOPA as substrate incubated for 10 mins
[3] = target: T1, Tyrosinase; experiment: Inhibition of mushroom tyrosinase using L-DOPA as substrate incubated for 20 mins by microplate reader analysis
[4] = target: T1, Tyrosinase; experiment: Inhibition of mushroom tyrosinase using L-DOPA as substrate preincubated for 10 mins followed by substrate addition measured after 20 mins by microtitre plate analysis
[5] = target: T2, Mushroom tyrosinase (Agaricus bisporus, UniProt O42713+Q00024+C7FF04+C7FF05); experiment: Inhibition of mushroom diphenolase
[6] = target: T2, Mushroom tyrosinase; experiment: Inhibition of mushroom monophenolase
[7] = target: T1, Tyrosinase; experiment: Inhibition of mushroom tyrosinase using L-dopa as substrate incubated for 30 mins by microplate reader analysis
[8] = target: T1, Tyrosinase; experiment: Inhibition of mushroom tyrosinase using L-dopa as substrate incubated for 30 mins by spectrophotometric analysis
[9] = target: T1, Tyrosinase; experiment: Inhibition of mushroom tyrosinase using L-dopa as substrate assessed as inhibition constant incubated for 30 mins by spectrophotometric analysis
[10] = target: T1, Tyrosinase; experiment: Inhibition of mushroom tyrosinase using L-DOPA as substrate assessed as monophenolase activity incubated for 20 mins by microplate reader analysis
[11] = target: T1, Tyrosinase; experiment: Inhibition of mushroom tyrosinase using L-tyrosine as substrate assessed as […] activity incubated for 20 mins by microplate reader analysis
[12] = target: T1, Tyrosinase; experiment: Inhibition of mushroom tyrosinase using L-dopa as substrate assessed as monophenolase activity by microplate reader analysis
[13] = target: T1, Tyrosinase; experiment: Inhibition of mushroom tyrosinase using L-tyrosine as substrate assessed as […] activity by microplate reader analysis
[14] = target: T1, Tyrosinase; experiment: Inhibition of mushroom tyrosinase using L-DOPA as substrate incubated for 20 mins
[15] = target: T1, Tyrosinase
Description: Inhibition of mushroom tyrosinase using L-DOPA as substrate assessed as inhibition constant preincubated for 15 mins followed by substrate addition measured after 2 mins by microtitre plate reader analysis

[16] = Antioxidant activity assessed as DPPH radical scavenging activity incubated for 30 mins under dark condition; format: functional
[17] = target: T1, Tyrosinase; experiment: Inhibition of mushroom tyrosinase using L-tyrosine as a substrate incubated for 10 mins
[18] = target: T1, Tyrosinase; experiment: Inhibition of mushroom tyrosinase using L-DOPA as substrate incubated for 10 mins by spectrophotometric assay
[19] = target: T1, Tyrosinase; experiment: Inhibition of mushroom tyrosinase using L-DOPA as substrate preincubated for 10 mins followed by substrate addition measured after 5 mins
[20] = target: T1, Tyrosinase; experiment: Inhibition of mushroom tyrosinase using L-dopa as substrate assessed as diphenolase activity incubated for 30 mins by spectrophotometric method
[21] = target: T1, Tyrosinase; experiment: Inhibition of mushroom tyrosinase using L-dopa as substrate assessed as monophenolase activity incubated for 30 mins by spectrophotometric method
[22] = target: T1, Tyrosinase; experiment: Inhibition of mushroom tyrosinase using L-DOPA as substrate preincubated for 10 mins followed by substrate addition measured after 20 mins by microtitre plate reader analysis

CCCCOC(=O)/C=C/c1ccc(O)cc1
pIC50 [1]: 4.16

COc1cc(/C=C/C(=O)c2cc(OC)c(OC)c(-c3cc(C(=O)/C=C/c4ccc(O)c(OC)c4)cc(OC)c3OC)c2)ccc1O
pIC50 [2]: 7.66

COc1cccc2c1c(C(=O)C(=O)Nc1cc[nH]n1)cn2Cc1ccc(F)cc1
pIC50 [2]: 3.65

Oc1ccc(/C=N\n2c(Cc3ccccc3F)n[nH]c2=S)cc1
pIC50 [3]: 5.21

Cc1ccc(C(C)C)cc1NC(=O)COC(=O)/C=C/c1ccc(O)cc1O
pIC50 [4]: 6.82

CCN(CC)c1ccc(Nc2nc(-c3ccc(O)cc3O)cs2)cc1
IC50 [5]: 10.3 µM | IC50 [6]: 6.2 µM

COc1cc(/C=C/C(=O)c2ccc(OC)c(OC)c2)ccc1O
pIC50 [2]: 7.42

O=C1N=C(Nc2nc3ccccc3s2)S/C1=C\c1ccc(O)cc1O
pIC50 [7]: 5.74

O=C1/C(=C/c2ccc(O)cc2O)Cc2ccccc21
pIC50 [8]: 5.86 | pKi [9]: 5.62

O=C(/C=C/c1ccc(O)cc1O)c1cccs1
pIC50 [10]: 6.03 | pIC50 [11]: 7.89

COc1ccccc1/C=C/C=N/Nc1nnc(SCc2cc(=O)c(O)co2)n1C
pIC50 [12]: 4.69 | pIC50 [13]: 5.12

CCOc1cc(/C=N/NC(=O)c2ccc(O)c(OC)c2)ccc1O
pIC50 [14]: 5.80

COc1cc([N+](=O)[O-])ccc1/C=C/C(=N\O)c1cc2ccccc2cc1O
pIC50 [8]: 5.32

CCn1c2ccccc2c2cc(NC(=O)CSc3nc4ccccc4[nH]3)ccc21
pKi [15]: 5.79

CCOC(=O)C1=C(N)Oc2c(ccc3ccccc23)C1c1ccc(N(C)C)cc1 (centres undefined)
EC50 [16]: 0.94 mM/L

O=C(O)CSc1nnc(NC(=S)Nc2cccc(C(F)(F)F)c2)s1
pIC50 [17]: 4.82

CCOC(OCC)c1ccc(/C=C2\Cc3ccccc3C2=O)cc1
pIC50 [18]: 5.17

Clc1ccc(Cn2cc(COc3ccc(-c4nc5ccccc5[nH]4)cc3)nn2)cc1Cl
pIC50 [19]: 5.03

OCC1CSC(c2ccc(O)cc2O)S1 (centres undefined)
pIC50 [7]: 4.86

COc1cc(CC2C(=O)Nc3ccccc32)ccc1O (centres undefined)
pIC50 [20]: 4.22 | pIC50 [21]: 4.20

Nn1c(S)nnc1N/N=C\c1ccccc1O
pIC50 [3]: 5.82

O=C(O)/C=C/c1ccc(O)cc1 [COUMARIC ACID]
pIC50 [1]: 3.53

CCOC(OCC)c1ccc(/C=C/C(=O)C2CCc3ccccc3C2=O)cc1 (centres undefined)
pIC50 [18]: 5.23

O=C1OC(c2ccccc2Br)=NC(=S)C1c1nn[nH]n1 (centres undefined)
pIC50 [22]: > 7.00
